In patent US5356926A, “3-alkyloxy-, aryloxy-, or arylalkyloxy-benzo [β]thiophene-2-carboxamides as inhibitors of cell adhesion” (Warner-Lambert Company, priority 1993, dated 1994):
Like-named read-outs stand apart in the source and are kept apart here.

How the values were obtained:
[1] = system: human neutrophil adhesion to TNFα, IL-1α, and LPS-stimulated human umbilical vein endothelial cells; assay: Inhibition of human neutrophil adhesion to stimulated HUVEC (51Cr-labeled neutrophils); assay type: cell-based
Description: METHOD FOR DETERMINING THE INHIBITION OF HUMAN NEUTROPHIL ADHESION TO TNFα, IL-1α, AND LPS-STIMULATED HUMAN UMBILICAL VEIN ENDOTHELIAL CELLS BY 3-ALKYLOXY-, ARYLOXY-, OR ARYLALKYLOXY BENZO[b]THIOPHENE-2-CARBOXAMIDES
Neutrophils were isolated from anticoagulant-treated venous blood obtained from healthy human volunteers according to the method of Ferrante and Thong (J. Immunol. Methods 1978;24:389-93).
Second passage human umbilical vein endothelial cells (HUVEC) (Clonetics, San Diego, Calif.) were seeded into Falcon 24-well cell culture plates (Becton Dickinson, Lincoln Park, N.J.) at approximately 2×10^4 cells per well. The cells were grown to confluent monolayers in endothelial basal medium (EBM, Clonetics) supplemented with 5% fetal calf serum (Hyclone Laboratories, Logan, Utah), 10 ng/mL EGF, 1 μg/mL hydrocortisone, 0.4% bovine brain extract (Clonetics) in 5% CO2 at 37° C.
Neutrophils (30×10^6) were labeled for 60 minutes at 37° C. with 100 μCi Na^51 CrO4 (ICN Biomedicals, Costa Mesa, Calif.) in 2.0 mL Ca^2+ - and Mg^2+ -free Hanks' balanced salt solution (HBSS, GIBCO Laboratories, Grand Island, N.Y.). The cells were washed two times in HBSS and suspended in unsupplemented EBM.
Stimulation of HUVEC with tumor necrosis factor-α (TNFα) (Genzyme, Cambridge, Mass.) , interleukin (IL-1α) (Genzyrne) or E. coli 0111:B4 lipopolysaccharide (LPS) (Sigma) in the presence or absence of drug was initiated 4 hours prior to the addition of neutrophils. The suspension medium was unsupplemented EBM or supplemented EBM for studies with cytokines or LPS, respectively. […] Immediately prior to addition of ^51 Cr-labeled neutrophils to the HUVEC monolayers, the cultures were washed with 1 mL unsupplemented media to remove stimulus and/or drug. Neutrophils (5×10^5) were then added to the HUVEC in 0.5 mL unsupplemented media and incubated at 37° C. for 30 minutes. Nonadherent neutrophils were removed by aspiration. Following an additional wash, adherent neutrophils were lysed with 0.5 mL 1N NH4 OH overnight at 37° C. Lysates were collected and the radioactivity in each well was determined by gamma ray spectroscopy.

Cyclooxygenase = assay: ARBC: cyclooxygenase (PGF2α) in RBL-1 cells; assay type: cell-based, rat; conditions: Table 4, class symbol
Procedure: (§1) The testing methods used are described as follows:
(§2) The rat basophilic leukemia cell line (RBL-1) was obtained from the American Type Culture Collection (Rockville, Md.).
(§3) Radioimmunoassay (RIA) kits of LTB4 and PGF2α were obtained from Arnersham (Arlington Heights, IL) and Seragen (Boston, Mass.), respectively.
(§4) All tissue culture media were obtained from GIBCO (Grand Island, N.Y.).
(§5) RBL-1 cells are grown in suspension culture in Eagle's minimum essential medium supplemented with 12% fetal bovine serum at 37° C. in an incubator supplied with air-5% carbon dioxide. Cells are harvested by centrifugation. They are washed with cold phosphate-buffered saline, pH 7.4 (PBS; NaCl, 7.1 g; Na2 HPO4, 1.15 g; KH2 PO4, 0.2 g; and KCl, 0.2 g/L). Cells are finally suspended in PBS containing 1.0 mM calcium at a density of 2×10^6 cells/mL. Cells are incubated with and without test agent (in DMSO) (1% DMSO is without effect on arachidonic acid metabolism) for 10 minutes at room temperature. Calcium ionophore A23187 (5 μM) is added and cells are incubated for 7 minutes at 37° C. The reaction is stopped by chilling the tubes on ice for 10 minutes. Cells are separated by centrifugation and the supernatant is stored at -20° C. Aliquots (100 μL) are analyzed for LTB4 and PGF2α using radioimmunoassay kits as provided by the supplier.

5-Lipoxygenase [2] = target: T1, 5-Lipoxygenase (Rattus norvegicus, UniProt P12527); assay: ARBL: 5-lipoxygenase (LTB4) in RBL-1 cells; assay type: cell-based; parameters: endogenous in cells; host or cells: RBL-1 (rat basophilic leukemia); conditions: Table 4; for inhibition at 10 µM: RBL-1, class symbol
T1 sequence (P12527 1-673): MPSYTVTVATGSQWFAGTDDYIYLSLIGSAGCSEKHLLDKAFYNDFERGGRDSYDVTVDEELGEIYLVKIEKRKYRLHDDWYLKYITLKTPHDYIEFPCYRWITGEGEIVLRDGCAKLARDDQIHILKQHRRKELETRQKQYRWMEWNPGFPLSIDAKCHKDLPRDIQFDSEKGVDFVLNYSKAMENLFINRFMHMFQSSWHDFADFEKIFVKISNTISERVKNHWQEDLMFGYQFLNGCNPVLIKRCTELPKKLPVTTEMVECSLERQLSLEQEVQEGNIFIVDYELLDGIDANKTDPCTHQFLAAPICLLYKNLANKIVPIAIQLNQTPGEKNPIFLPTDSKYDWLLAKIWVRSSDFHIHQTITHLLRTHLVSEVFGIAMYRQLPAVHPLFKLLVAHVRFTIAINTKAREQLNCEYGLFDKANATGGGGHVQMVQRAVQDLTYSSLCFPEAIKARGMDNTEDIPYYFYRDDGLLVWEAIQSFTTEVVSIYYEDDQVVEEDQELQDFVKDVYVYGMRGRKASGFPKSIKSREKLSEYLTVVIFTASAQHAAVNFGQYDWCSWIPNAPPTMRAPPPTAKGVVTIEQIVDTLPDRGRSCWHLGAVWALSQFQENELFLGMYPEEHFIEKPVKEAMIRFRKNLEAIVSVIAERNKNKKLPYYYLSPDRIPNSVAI
Procedure: as §1, §2, §3, §4, §5

5-Lipoxygenase [3] = target: T1, 5-Lipoxygenase; assay: 5-lipoxygenase inhibition assay (20,000 xg supernatant of RBL cells); assay type: biochemical; parameters: activity contained in the 20,000 xg supernatant from cultured rat basophilic leukemia (RBL) cells; endogenous in cells; host or cells: RBL (rat basophilic leukemia) cells, 20,000 xg supernatant
Procedure: PROTOCOL FOR 5-LIPOXYGENASE INHIBITION ASSAY
Incubations contained 5% (v/v) RBL 20,000 xg supernatant in assay buffer (10 mM BES, 10 mM PIPES, 1 mM EDTA, 0.75 mM CaC12, 1 mMATP, 100 mMNaCl, pH 6.8). DMSO vehicle (2% v/v) with and without inhibitors is preincubated with the enzyme for 20 minutes at 37° C. before initiating the 5-lipoxygenase catalyzed reaction by adding […] [^14 C]arachidonic acid (55.8 mCi/mmol, New England Nuclear, Boston, Mass.) dissolved in 5 μL 0,028% (v/v) aqueous NH4 OH. After 20 minutes of additional incubation at 37° C., reactions are terminated by the addition of three volumes of methanol containing 100 μg triphenylphosphine. Samples are then analyzed by HPLC with radiometric detection for 5-1ipoxygenase reaction products.
All treatments are evaluated in duplicate and percent inhibition is computed by comparing the products formed in treatment incubations to the mean product formation in the vehicle control group.

[4] = system: mycobacterium footpad edema; assay: Inhibition of mycobacterium footpad edema (MFE); assay type: in vivo, rat; conditions: rats
Procedure: METHOD FOR DETERMINING THE INHIBITION OF MYCOBACTERIUM FOOTPAD EDEMA BY […]HOXY-3-([…]HYLETHOXY) BENZO[b]THIOPHENE-2-CARBOXAMIDE-1-OXIDE Mycobacterium butyricum (5 mg/mL) was prepared by sonication in paraffin oil for 10 minutes in an ice bath. Footpad edema was induced on Day 0 by injecting 0.1 mL of the Mycobacterium mixture into the left hindpaw of lightly anesthetized rats. Swelling in the injected hindpaw was determined by mercury plethysmography on Days 1, 2, and 3. Groups of rats were treated with test compounds (suspended in 0.5% hydroxypropyl methylcellulose with 0.2% Tween 80 or vehicle 1 hour before Mycobacterium injection and on Days 1 and 2. Inhibition of swelling is determined by comparing the change in hindpaw volume in compound- and vehicle-treated rats.

[5] = Table 4, class symbol, read-out: 5-LO % Inhibition at 30 μM

inhibition at 10 µM (5-Lipoxygenase [2]) | inhibition at 30 µM (5-Lipoxygenase [3]; [5]) | IC50 ([1]; Table 2, footnote b) | IC50 (5-Lipoxygenase [2]; ARBL/ARBC IC50 (μM) or % inhibition at 10 μM, RBL-1 cells, A23187) | inhibition at 30 µM (5-Lipoxygenase [3]; Table 4, read-out: 5-LO % Inhibition at 30 μM) | Structure (SMILES) | inhibition at 100 µM ([1]; Table 1, at 100 μM) | ARBC % Inhibition at 10 μM (Cyclooxygenase) | inhibition at 100 µM ([1]; Table 3, at 100 μM) | ED40 ([4]; Mycobacterium, dosed 1 hour before injection and on Days 1 and 2, read-out: ID40 in mycobacterium footpad edema (MFE)) | activity in mycobacterium footpad edema (in words) [4]
< 40% | < 4% |  |  |  | CC(C)Oc1c(C(N)=O)sc2ccccc12 [Example 2, 3-(1-methylethoxy)benzo[b]thiophene-2-carboxamide] | 60% | N (Less than 40% inhibition at 10 μM) |  |  | 
< 40% | < 4% |  |  |  | COc1ccc2sc(C(N)=O)c(Oc3ccccc3)c2c1 [Example 9, 5-Methoxy-3-(phenoxy)benzo[b]thiophene-2-carboxamide] | 59% | N (Less than 40% inhibition at 10 μM) |  |  | 
 |  | 50 µM | 36 µM | 16% | COc1ccc2sc(C(=O)Nc3ccc(C(=O)O)cc3)c(OC(C)C)c2c1 [Example 12, 4-[[[5-Methoxy-3-(1-methylethoxy)benzo[b]thien-2-yl]carbonyl]amino]benzoic acid] |  |  |  |  | 
 |  |  |  |  | COc1ccc2c(c1)c(OC(C)C)c(C(N)=O)[s+]2[O-] (centres unmarked) [Example 28, 5-Methoxy-3-(1-methylethoxy)benzo[b]thiophene-2-carboxamide-1-oxide] |  |  | 83% | 10.9 mg/kg | active
